Test results from patent publication US20240293432A1, “Use of Cannabidiol to Improve Rehabilitation in Lung Cancer” (priority 2023, published 2024).
Where two headings read alike, the source gives them in different places.

What was measured:
[1] = system: H1975 lung cancer cell line; experiment: CellTiter Glo viability assay, drugs alone or combined with CBD; format: cell-based
Method: Viability after treatment with each cancer drug was compared with and without CBD (*=p<0.05 Student's t test).
Effects of CBD combination with Standard of Care drugs in lung cancer cells: A study was conducted which screened cannabinoids, including CBD, for their ability to synergize with FDA-approved anti-cancer drugs to reduce the viability of cancer cells in vitro. […] IC50 was calculated using GraphPad Prism (dose-response inhibition), and Combination Index (CI) was calculated using CompuSyn software. […] Because the major driver mutation in this cell line is known (KRAS), the study evaluated potential drug synergy between CBD and the G12D specific KRAS inhibitor MTRX1133.

[2] = system: LLC lung cancer cell line; experiment: cells; format: cell-based, mouse
[3] = system: LLC flank tumor-bearing mice; experiment: Open field test and elevated plus maze in mice with subcutaneous LLC flank tumors after chemotherapy; format: in vivo, C57BL/6 mice
Method: FIGS. 4A-4C depict that the behavior of mice is altered by tumor growth and by chemotherapy indicating increased pain and anxiety. C57BL/6 mice were inoculated with 5×105 LLC1 on right flank on Day 0. Cisplatin or Osimertinib were administered in doses of 10 mg/kg by intraperitoneal injection on the days indicated. DMSO+sterile saline was used as a vehicle control. Behavior was assayed using the open field test and EPM according to the timeline depicted in FIG. 4A. The open field (FIG. 4B) and EPM (FIG. 4C) tests were recorded using AnyMaze software to track animal speed, movement, and location. Significant differences between means were determined by ANOVA with Holm Sidack post hoc test p<0.05.
Alterations in behavior in tumor-bearing mice following chemotherapy treatment: To make a preliminary assessment of cancer and chemotherapy-derived symptoms (anxiety, reduced mobility, and pain) in mice, a study was conducted which used the syngeneic Lewis Lung Carcinoma (LLC) model of subcutaneous flank tumors. C57BL/6 mice were injected with 5×10^5 LLC cells on the right flank. Tumor-bearing mice were treated with Cisplatin, Osimertinib, or vehicle, as outlined in FIGS. 5A-5C. The study performed the open field test (a sensory motor test used to measure general activity level) and the elevated plus maze (EPM) (test for anxiety behavior) on tumor-bearing mice throughout the period of tumor growth and treatment (FIG. 4A). In these tests, reduced physical activity was used an indicator of increased pain, and decreases in both distances traveled and time spent mobile over the tumor growth period were observed. […] Overall, the mice spent very little time in the open arms regardless of time point or treatment group making the measure unreliable. […] One limitation of this model is the contribution of tumor location on the hind flank to decreased mobility. To overcome this limitation, future studies can use genetically engineered models of tumor growth in the lungs.

[4] = system: lung tumor-bearing mice (luciferase expressing LLC cells); experiment: Open field test, elevated plus maze and tumor growth in mice with orthotopic LLC lung tumors; format: in vivo, C57BL/6 mice
Method: FIGS. 5A-5C depict the effects of CBD on behavior in lung tumor bearing mice. […] D-Luciferin (150 mg/kg) was delivered by IP injection 10 minutes prior to imaging. Vehicle or CBD (25 mg/kg) was delivered by oral gavage every alternate day and Open Field (FIG. 5B) and EPM (FIG. 5C) tests were performed. Significant differences between means were determined by ANOVA with Holm Sidack post hoc test.
Effects of CBD on the behavior of lung tumor-bearing mice: To make a preliminary assessment of the effects of CBD on the behavior of lung tumor-bearing mice, a study was conducted which used the open field test and EPM to determine if behavioral deficiencies observed in FIGS. 4A-4C could be rescued. Lung tumors were initiated in C57BL/6 mice via intratracheal instillation of 5×10^5 luciferase expressing LLC cells (Perkin Elmer) and tumor growth was monitored using the Perkin Elmer In Vivo Imaging System (IVIS). Treatment groups were assigned on day 9 (FIG. 5A) to ensure each group (n=4) contained tumors of approximately the same size based on luminescence readings. CBD (25 mg/kg) or vehicle (2:1:18 parts ethanol:Tween-80:PBS) treatments by oral gavage were started on day 10 and repeated every alternate day, two hours prior to the beginning of behavioral testing. […] This is consistent with previous studies of CBD treatment in naïve mice. […] (FIG. 5B).
This may indicate less interest in the corner zone and, therefore, less anxiety. […] The effects of CBD treatment in lung cancer can be investigated using additional tests to measure pain (cold plate, Von Frey, conflict avoidance) and endurance (treadmill) to discover how CBD dose and combination with cancer therapies can improve these outcomes.

[5] = LLC flank tumor mice, 10 mg/kg intraperitoneal
[6] = 25 mg/kg oral gavage every alternate day

SMILES | IC50 ([1]; H1975, 48 hr, combinations with 10 μM CBD, read-out: IC50 (μM), cell viability reduction) | IC50 ([2]; 48 hr, combinations with 10 μM CBD, read-out: IC50 (μM), cell viability reduction) | Anxiety compared to vehicle [3, 5] | Mobility compared to vehicle [3, 5] | Time spent in the open center zone (EPM) compared to vehicle [3, 5] | IC50 ([1]; Homo sapiens, NCI-H1975, 48 h, read-out: IC50 (μM), cell viability reduction) | IC50 ([1]; Homo sapiens, NCI-H1975, read-out: IC50 of CBD alone (FIG. 2 legend)) | IC50 ([2]; Mus musculus, 48 hr, combinations with 10 μM CBD, read-out: IC50 (μM), cell viability reduction) | IC50 ([2]; Mus musculus, n=3, read-out: IC50 of CBD alone (FIG. 2 legend)) | Number of entries into the corner zone (open field) [4, 6] | Time mobile in the EPM [4, 6] | Time spent in the center zone (open field) [4, 6] | Time the animal's head was within the open center zone (EPM) [4, 6] | Distance travelled in the open field test ([4]; 25 mg/kg oral gavage every alternate day, initially) | Time mobile in the open field ([4]; 25 mg/kg oral gavage every alternate day, later as tumor growth progressed) | Tumor growth ([4]; CBD alone, 25 mg/kg oral gavage, IVIS luminescence) | IC50 ([1]; Homo sapiens, NCI-H1975, H1975, 48 hr, combinations with 10 μM CBD, read-out: IC50 (μM), cell viability reduction) | Anxiety compared to vehicle ([3]; mouse, in vivo, ip, 10 mg/kg)
N.N.[Cl][Pt][Cl] [Cisplatin] | 28 µM | 3.1 µM | increased anxiety | greater reduction in mobility | significantly decreased | – | – | – | – | – | – | – | – | – | – | – | – | –
C=C(C)[C@@H]1CCC(C)=C[C@H]1c1c(O)cc(CCCCC)cc1O [CBD, Cannabidiol] | – | – | – | – | – | 19.5 µM | 21 µM | 19 µM | 14.5 µM | trending decrease | significant increases | significant increases | significant increases | no significant change | significant increases | significant reduction in tumor growth using CBD alone was not observed | – | –
C=CC(=O)Nc1cc(Nc2nccc(-c3cn(C)c4ccccc34)n2)c(OC)cc1N(C)CCN(C)C [Osimertinib] | – | – | – | – | significantly decreased | – | – | – | – | – | – | – | – | – | – | – | 3.7 µM | increased anxiety
